Results: the NIST ThermoML archive (doi:10.1016/j.fluid.2010.10.028)
Numbers after ± are expanded uncertainties.

Experiment: xn = mol fraction of the nth substance listed
Settings: Liquid, Vibrating tube method

`CC(C)=O` [acetone] + CCCCCCC showed a mass density (397.26 K, 104690 kPa, x1 = 0.8992) of 764.67 ± 1.6 kg/m3, a mass density (397.26 K, 109670 kPa, x1 = 0.4) of 767.98 ± 1.6 kg/m3 and a mass density (397.26 K, 109670 kPa, x1 = 0.8992) of 767.98 ± 1.6 kg/m3. It also gave a mass density (397.26 K, 114610 kPa, x1 = 0.4) of 771.16 ± 1.6 kg/m3, a mass density (397.26 K, 114610 kPa, x1 = 0.8992) of 771.16 ± 1.6 kg/m3 and a mass density (397.26 K, 119600 kPa, x1 = 0.4) of 774.27 ± 1.6 kg/m3. It also gave a mass density (397.26 K, 119600 kPa, x1 = 0.8992) of 774.27 ± 1.6 kg/m3, a mass density (397.27 K, 1520 kPa, x1 = 0.611) of 608 ± 1.2 kg/m3 and a mass density (397.27 K, 4850 kPa, x1 = 0.801) of 635.17 ± 1.2 kg/m3. The mass density (397.27 K, 4860 kPa, x1 = 0.611) was 616.98 ± 1.2 kg/m3, the mass density (397.27 K, 9850 kPa, x1 = 0.801) was 646.73 ± 1.2 kg/m3 and the mass density (397.27 K, 9870 kPa, x1 = 0.611) was 628.41 ± 1.2 kg/m3. The mass density (397.27 K, 10000 kPa, x1 = 0.4) was 660.81 ± 1.2 kg/m3, the mass density (397.27 K, 10000 kPa, x1 = 0.8992) was 660.81 ± 1.2 kg/m3 and the mass density (397.27 K, 14860 kPa, x1 = 0.801) was 656.72 ± 1.2 kg/m3. The mass density (397.27 K, 19840 kPa, x1 = 0.801) was 665.54 ± 1.3 kg/m3, the mass density (397.27 K, 19860 kPa, x1 = 0.611) was 646.79 ± 1.3 kg/m3 and the mass density (397.27 K, 24850 kPa, x1 = 0.611) was 654.54 ± 1.3 kg/m3. The mass density (397.27 K, 24870 kPa, x1 = 0.801) was 673.51 ± 1.3 kg/m3, the mass density (397.27 K, 24950 kPa, x1 = 0.4) was 687.4 ± 1.3 kg/m3 and the mass density (397.27 K, 24950 kPa, x1 = 0.8992) was 687.4 ± 1.3 kg/m3. It also gave a mass density (397.27 K, 29850 kPa, x1 = 0.611) of 661.6 ± 1.3 kg/m3, a mass density (397.27 K, 34860 kPa, x1 = 0.801) of 687.43 ± 1.3 kg/m3 and a mass density (397.27 K, 34870 kPa, x1 = 0.611) of 668.12 ± 1.3 kg/m3. The mass density (397.27 K, 34940 kPa, x1 = 0.4) was 701.35 ± 1.3 kg/m3, the mass density (397.27 K, 34940 kPa, x1 = 0.8992) was 701.35 ± 1.3 kg/m3 and the mass density (397.27 K, 39870 kPa, x1 = 0.611) was 674.11 ± 1.4 kg/m3. For the same molecule, the mass density (397.27 K, 39930 kPa, x1 = 0.4) was 707.57 ± 1.3 kg/m3, the mass density (397.27 K, 39930 kPa, x1 = 0.8992) was 707.57 ± 1.3 kg/m3 and the mass density (397.27 K, 44850 kPa, x1 = 0.801) was 699.35 ± 1.4 kg/m3. The mass density (397.27 K, 44870 kPa, x1 = 0.611) was 679.73 ± 1.4 kg/m3, the mass density (397.27 K, 49850 kPa, x1 = 0.611) was 684.97 ± 1.4 kg/m3 and the mass density (397.27 K, 49850 kPa, x1 = 0.801) was 704.77 ± 1.4 kg/m3. The mass density (397.27 K, 54850 kPa, x1 = 0.611) was 689.91 ± 1.4 kg/m3, the mass density (397.27 K, 54860 kPa, x1 = 0.801) was 709.87 ± 1.4 kg/m3 and the mass density (397.27 K, 59840 kPa, x1 = 0.611) was 694.59 ± 1.4 kg/m3. It also gave a mass density (397.27 K, 64820 kPa, x1 = 0.801) of 719.28 ± 1.4 kg/m3, a mass density (397.27 K, 64860 kPa, x1 = 0.4) of 733.56 ± 1.4 kg/m3 and a mass density (397.27 K, 64860 kPa, x1 = 0.8992) of 733.56 ± 1.4 kg/m3. The mass density (397.27 K, 69920 kPa, x1 = 0.611) was 703.34 ± 1.5 kg/m3, the mass density (397.27 K, 69920 kPa, x1 = 0.801) was 723.77 ± 1.4 kg/m3 and the mass density (397.27 K, 79800 kPa, x1 = 0.4) was 746.33 ± 1.5 kg/m3. It also gave a mass density (397.27 K, 79800 kPa, x1 = 0.8992) of 746.33 ± 1.5 kg/m3, a mass density (397.27 K, 79900 kPa, x1 = 0.801) of 731.97 ± 1.5 kg/m3 and a mass density (397.27 K, 79910 kPa, x1 = 0.611) of 711.27 ± 1.5 kg/m3. For the same molecule, the mass density (397.27 K, 84880 kPa, x1 = 0.611) was 715 ± 1.6 kg/m3, the mass density (397.27 K, 84880 kPa, x1 = 0.801) was 735.83 ± 1.5 kg/m3 and the mass density (397.27 K, 89870 kPa, x1 = 0.611) was 718.57 ± 1.6 kg/m3. The mass density (397.27 K, 89870 kPa, x1 = 0.801) was 739.53 ± 1.5 kg/m3, the mass density (397.27 K, 94750 kPa, x1 = 0.4) was 757.72 ± 1.5 kg/m3 and the mass density (397.27 K, 94750 kPa, x1 = 0.8992) was 757.72 ± 1.5 kg/m3. It also gave a mass density (397.27 K, 94840 kPa, x1 = 0.801) of 743.11 ± 1.6 kg/m3, a mass density (397.27 K, 94850 kPa, x1 = 0.611) of 722.01 ± 1.6 kg/m3 and a mass density (397.27 K, 99720 kPa, x1 = 0.4) of 761.24 ± 1.6 kg/m3. The mass density (397.27 K, 99720 kPa, x1 = 0.8992) was 761.24 ± 1.5 kg/m3, the mass density (397.27 K, 99830 kPa, x1 = 0.611) was 725.33 ± 1.6 kg/m3 and the mass density (397.27 K, 104800 kPa, x1 = 0.611) was 728.56 ± 1.6 kg/m3. The mass density (397.27 K, 104800 kPa, x1 = 0.801) was 749.91 ± 1.6 kg/m3, the mass density (397.27 K, 109770 kPa, x1 = 0.611) was 731.66 ± 1.7 kg/m3 and the mass density (397.27 K, 119830 kPa, x1 = 0.801) was 759.4 ± 1.7 kg/m3. It also gave a mass density (397.27 K, 124560 kPa, x1 = 0.4) of 777.29 ± 1.6 kg/m3, a mass density (397.27 K, 124560 kPa, x1 = 0.8992) of 777.29 ± 1.6 kg/m3 and a mass density (397.27 K, 129820 kPa, x1 = 0.4) of 780.45 ± 1.7 kg/m3. The mass density (397.27 K, 129820 kPa, x1 = 0.8992) was 780.45 ± 1.6 kg/m3, the mass density (397.27 K, 129840 kPa, x1 = 0.801) was 765.29 ± 1.7 kg/m3 and the mass density (397.28 K, 1470 kPa, x1 = 0.7024) was 615.75 ± 1.2 kg/m3. It also gave a mass density (397.28 K, 1500 kPa, x1 = 0.492) of 600.98 ± 1.2 kg/m3, a mass density (397.28 K, 4850 kPa, x1 = 0.7024) of 624.89 ± 1.2 kg/m3 and a mass density (397.28 K, 4860 kPa, x1 = 0.492) of 609.77 ± 1.2 kg/m3. For the same molecule, the mass density (397.28 K, 9830 kPa, x1 = 0.7024) was 636.41 ± 1.2 kg/m3, the mass density (397.28 K, 9850 kPa, x1 = 0.492) was 620.92 ± 1.2 kg/m3 and the mass density (397.28 K, 14840 kPa, x1 = 0.7024) was 646.37 ± 1.2 kg/m3. For the same molecule, the mass density (397.28 K, 14860 kPa, x1 = 0.492) was 630.52 ± 1.2 kg/m3, the mass density (397.28 K, 19840 kPa, x1 = 0.7024) was 655.11 ± 1.3 kg/m3 and the mass density (397.28 K, 24820 kPa, x1 = 0.7024) was 662.95 ± 1.3 kg/m3. It also gave a mass density (397.28 K, 29820 kPa, x1 = 0.7024) of 670.12 ± 1.3 kg/m3, a mass density (397.28 K, 29840 kPa, x1 = 0.492) of 653.43 ± 1.3 kg/m3 and a mass density (397.28 K, 29860 kPa, x1 = 0.801) of 680.72 ± 1.3 kg/m3. For the same molecule, the mass density (397.28 K, 34830 kPa, x1 = 0.7024) was 676.7 ± 1.3 kg/m3, the mass density (397.28 K, 34860 kPa, x1 = 0.492) was 659.77 ± 1.3 kg/m3 and the mass density (397.28 K, 39840 kPa, x1 = 0.7024) was 682.81 ± 1.3 kg/m3. For the same molecule, the mass density (397.28 K, 39850 kPa, x1 = 0.801) was 693.57 ± 1.3 kg/m3, the mass density (397.28 K, 44820 kPa, x1 = 0.7024) was 688.48 ± 1.4 kg/m3 and the mass density (397.28 K, 44860 kPa, x1 = 0.492) was 671.15 ± 1.4 kg/m3. It also gave a mass density (397.28 K, 49810 kPa, x1 = 0.7024) of 693.79 ± 1.4 kg/m3, a mass density (397.28 K, 54840 kPa, x1 = 0.492) of 681.14 ± 1.4 kg/m3 and a mass density (397.28 K, 54910 kPa, x1 = 0.7024) of 698.93 ± 1.4 kg/m3. For the same molecule, the mass density (397.28 K, 59840 kPa, x1 = 0.492) was 685.74 ± 1.4 kg/m3, the mass density (397.28 K, 59850 kPa, x1 = 0.801) was 714.7 ± 1.4 kg/m3 and the mass density (397.28 K, 59860 kPa, x1 = 0.7024) was 703.65 ± 1.4 kg/m3. It also gave a mass density (397.28 K, 64820 kPa, x1 = 0.492) of 690.08 ± 1.5 kg/m3.
